Assay [1] deals with T1, beta3 -adrenergic receptor (Rattus norvegicus, UniProt P26255).
T1 construct: Rat epididymal fat pads are excised and placed in 0.9% saline; from tissue; host or cells: collagenase-isolated adipocytes from rat epididymal fat pads
Kind of assay: β3-effect: stimulation of adipocyte lipolysis (rat epididymal fat pad cells, glycerol release). In kind it is cell-based. Conditions: rat epididymal adipocytes, 37° C., 30 minutes; concentration giving 50% of the maximum rate of lipolysis of that compound. The protocol:
(§1) Selectivity of a compound is determined using the following procedures.
The β3 -effect of the compounds is determined by their ability to stimulate adipocyte lipolysis. Rat epididymal fat pads are excised and placed in 0.9% saline. Four grams of tissue is transferred to a flask with 20 ml of aerated Krebs-Henseleit bicarbonate (KHB) buffer containing 3% fatty acid-free bovine serum albumin to which 75 mg of crude bacterial collagenase (Worthington) has been added. The tissue is incubated for about 45 minutes at 37° C. with gentle shaking. The cells are then washed three times with two volumes of KHB buffer, filtered through two layers of gauze, and brought to a final volume of 80 ml with KHB buffer. One ml aliquots of the cell suspension is added to plastic test tubes containing the appropriate additions of vehicle or compound. The cells are gassed for 1 minute with 95%O2 -5%CO2, capped, and incubated at 37° C. with continuous shaking for a total of 30 minutes. The reaction is stopped by adding 0.1 ml of 30% perchloric acid and 0.1 ml of chloroform. […] The amount of glycerol generated from the hydrolysis of endogenous triglycerides is determined in a coupled-enzyme spectrophotometric assay. […] The amount of NADH generated, which is proportional to the amount of glycerol, is determined by the increase in absorbance at 340 nm. […]

For assay [2], the target named is T2, beta1 -adrenergic receptor (Rattus norvegicus, UniProt P18090).
T2 construct: membranes from rat heart; from tissue; host or cells: rat heart membranes
The assay can be described thus: Heart binding: β1-effect, membranes from rat heart, [125I]iodocyanopindolol. Conditions: incubation 1 hour. The protocol: as §1
(§2) Binding assays for β1 -effect are carried out by the use of membranes from rat heart, and β2 -effect by the use of membranes from rat lung by the method described in Neve, et at., J. Pharmacol. Exp. Ther., 1985, 235, 657-664 with the following exceptions:
(§3) 1. the incubation volume is 0.5 ml,
(§4) 2. the incubation time is 1 hour,
(§5) 3. the radioligand is [^125 I]iodocyanopindolol,
(§6) 4. (-)-isoproterenol (50 μM) is used to define specific binding, and
(§7) 5. the filters are washed at 4° C.

The target of assay [3] is T3, beta2 -adrenergic receptor (Rattus norvegicus, UniProt P10608).
T3 construct: membranes from rat lung; from tissue; host or cells: rat lung membranes
Kind of assay: Lung binding: β2-effect, membranes from rat lung, [125I]iodocyanopindolol. Conditions: incubation 1 hour. On the procedure:
as §1, §2, §3, §4, §5, §6, §7

Among the data in patent US5482971A, “Beta3 -adrenergic agents and their use in pharmaceutical compositions” (American Cyanamid Company, priority 1993, dated 1996) are EC50 and IC50 values, retold here.

T2 sequence (P18090 whole entry): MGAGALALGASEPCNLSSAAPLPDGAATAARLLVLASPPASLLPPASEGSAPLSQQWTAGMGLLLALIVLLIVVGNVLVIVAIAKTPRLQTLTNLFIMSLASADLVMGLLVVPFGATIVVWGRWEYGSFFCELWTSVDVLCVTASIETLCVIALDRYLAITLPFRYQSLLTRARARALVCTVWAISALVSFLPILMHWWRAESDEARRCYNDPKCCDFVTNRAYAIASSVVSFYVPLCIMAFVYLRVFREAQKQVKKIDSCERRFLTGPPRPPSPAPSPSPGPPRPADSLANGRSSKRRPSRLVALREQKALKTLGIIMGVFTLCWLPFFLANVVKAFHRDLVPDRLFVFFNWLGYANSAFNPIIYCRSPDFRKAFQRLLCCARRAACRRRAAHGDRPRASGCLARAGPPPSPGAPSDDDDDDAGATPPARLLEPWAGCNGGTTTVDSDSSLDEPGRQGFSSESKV
T3 sequence (P10608 whole entry): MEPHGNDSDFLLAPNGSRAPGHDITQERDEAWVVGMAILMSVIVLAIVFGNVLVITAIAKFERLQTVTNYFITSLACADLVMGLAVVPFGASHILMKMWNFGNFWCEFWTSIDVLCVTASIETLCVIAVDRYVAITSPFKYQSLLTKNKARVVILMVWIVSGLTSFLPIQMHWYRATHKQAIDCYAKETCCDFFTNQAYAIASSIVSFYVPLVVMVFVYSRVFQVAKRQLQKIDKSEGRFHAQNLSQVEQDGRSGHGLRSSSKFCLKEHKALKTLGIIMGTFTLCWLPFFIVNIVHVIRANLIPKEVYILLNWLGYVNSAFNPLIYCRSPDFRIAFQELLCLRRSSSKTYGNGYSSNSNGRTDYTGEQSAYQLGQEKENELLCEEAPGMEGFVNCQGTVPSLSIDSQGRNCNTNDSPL
T1 sequence (P26255 whole entry): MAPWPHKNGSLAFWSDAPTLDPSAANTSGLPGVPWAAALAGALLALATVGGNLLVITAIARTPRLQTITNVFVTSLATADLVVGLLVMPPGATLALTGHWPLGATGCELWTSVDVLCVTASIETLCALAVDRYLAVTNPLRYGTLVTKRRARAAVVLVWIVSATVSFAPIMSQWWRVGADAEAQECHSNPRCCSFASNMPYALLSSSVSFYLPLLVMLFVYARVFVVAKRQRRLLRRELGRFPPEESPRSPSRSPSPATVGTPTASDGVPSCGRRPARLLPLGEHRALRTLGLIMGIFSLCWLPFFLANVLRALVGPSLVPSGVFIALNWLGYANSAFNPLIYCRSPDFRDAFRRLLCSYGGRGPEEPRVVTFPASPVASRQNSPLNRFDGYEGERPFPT

Broadly, the EC50 is the concentration giving half of the maximal effect. Low readings indicate a more potent agent, high ones a less potent agent. In general, IC50 refers to the point on the concentration scale where inhibition reaches its midpoint. Consider `C[C@H](CCc1ccc2c(c1)OC(C(=O)O)(C(=O)O)O2)NC[C@H](O)c1cccc(Cl)c1` [Example 3, Disodium (R,R)-5-((3-(2-(3-chlorophenyl)-2-hydroxyethyl)amino)butyl)-1,3-benzodioxole-2,2-dicarboxylate], for which the concentration giving a half-maximal response (EC50) in assay [1] was 17 nM. The IC50 amounted to 19000 nM in assay [2] and 20000 nM in assay [3].
